Reference: US10716805B2, “Formulation for release of nitric oxide” (Glanotech Limited, priority 2018, dated 2020)
“Also recorded” adds a separate entry of the source.

Assays:
corpus cavernosum tissue = assay: In-vitro relaxation/contraction of rat corpus cavernosum tissue (force displacement transducer); type: cell-based; details: for relaxation of the tissue of the corpora cavernosa pre-constricted with norepinephrine (vasodilatory effect): scalar solutions 10^−s M to 10^−3 M after norepinephrine constriction of about 1.5 mN
Text: In particular, this model is used for planning experiments aimed at checking the vasodilatory action of NO on vascular smooth muscle cells, since the methodology presented by the authors allows samples of corpus cavernosum tissue to be obtained from rats, on which studies of response to various exogenous molecules can be conducted, to detect their relaxation/contraction effects on smooth muscle cells.
We used 20 adult Wistar-type rats weighing between 175 and 200 g; after having sacrificed the rats we obtained corpus cavernosum tissues as described by the methods and placed these in a Krebs solution (in mM: 118 NaCl, 4.7 KCl, 1.2 KH2PO4, 1.2 MgSO4, 1.5 CaCl2, 25 NaHCO3, 11 glucose).
A single sample was taken from each rat.
The excised tissues were then put in 10 mL Krebs solution and held in place by two metal arms to allow assessment of any changes in the forces observed and assessed by the Grass FT03 model (using a force displacement transducer apparatus to assess the muscle tension of tissues, calibrated in mN). The saline solution containing the tissues (Krebs solution) was kept at pH 7.4±0.1 and at 37° C., with oxygenation using a mixture of 95% oxygen and 5% carbon dioxide.

[1] = tested on: rat model with type 1 diabetes induced by streptozotocin; assay: In-vivo test of sexual function in diabetic rat models; details: for EL (Ejaculation latency) / IF (Introduction frequency) / IL (Introduction latency) / MF (Mating frequency) / ML (Mating latency) / PEI (Post-ejaculatory interval): diabetic rat
Experimental: Next we tested the possible beneficial effects of SNO-pantetheine on sexual function in a rat model with type 1 diabetes induced by streptozotocin, which is typically accompanied by deficit of sexual activity.
In short, male Wistar rats were assigned to a cage (45×50×35 cm) covered in glass and lit with red light. Training took place every day after 5 pm for about 30 min, and after 10 minutes of acclimatization a female rat in an oestrogenic phase was introduced into the cage. We then observed the sexual behaviour of diabetic rats vs. the relevant controls by measuring standard parameters (Burnett et al., 1995).

[2] = Formation and stability of nitrosothiol after mixing of phases A and B (visible UV absorption spectrum); type: physicochemical; details: at room temperature
Experimental: The reaction mixture is prepared by dissolving the following amounts of reagents in 5 mL propylene glycol: fumaric acid 10 mM; ascorbic acid between 30 and 50 mM (PHASE A).
A solid phase, consisting of a mixture of pantetheine, sodium nitrite and powdered copper sulfate, is added rapidly to the solution obtained, in a quantity such that their concentration in the final reaction volume amounts to: pantetheine 10 mM, sodium nitrite 15 mM; copper sulfate 1 mM (PHASE B). Mixing is done at room temperature (25° C.) (Fukuto et al., 2013).
The S-nitroso compound observed, which was absent […] the phases were mixed, is attributable to the S-nitroso pantetheine derivative.
At the same time, owing to the catalytic action of the traces of copper present, the corresponding nitrosothiol is also formed, and remains sufficiently stable for more than 1 hour at room temperature. Therefore, this formulation allows the rapid formation of nitrogen monoxide in a rapidly diffusible form and, at the same time, the formation of nitrosothiol that is sufficiently stable for the sustained release of nitrogen monoxide over time.

[3] = SNO-pantetheine group, Day 0 (baseline)
[4] = topical SNO-pantetheine, Day 30

Compound | constriction of corpus cavernosum tissue (corpus cavernosum tissue; scalar solutions 10^−8 M to 10^−3 M, Krebs solution pH 7.4, 37° C.) | relaxation of the tissue of the corpora cavernosa pre-constricted with norepinephrine (vasodilatory effect) (corpus cavernosum tissue) | EL (Ejaculation latency) [1, 3] | IF (Introduction frequency) [1, 3] | IL (Introduction latency) [1, 3] | MF (Mating frequency) [1, 3] | ML (Mating latency) [1, 3] | PEI (Post-ejaculatory interval) [1, 3] | EL (Ejaculation latency) [1, 4] | IF (Introduction frequency) [1, 4] | IL (Introduction latency) [1, 4] | MF (Mating frequency) [1, 4] | ML (Mating latency) [1, 4] | PEI (Post-ejaculatory interval) [1, 4] | effect on sexual behaviour in the diabetic rat model ([1]; topical application, vs. all the parameters assessed) | time nitrosothiol remains sufficiently stable [2]
NC[C@H](O)c1ccc(O)c(O)c1 [norepinephrine, reference compound] | about 1.5 mN |  |  |  |  |  |  |  |  |  |  |  |  |  |  | 
S-nitrosothiol of alpha lipoic acid |  | behaviour that is very similar to that of the S-nitrosothiol of pantetheine; also recorded: exhibit the desired vasodilatory effect |  |  |  |  |  |  |  |  |  |  |  |  |  | 
S-nitrosothiol of pantetheine [SNO-pantetheine] |  | effect of the norepinephrine was cancelled out; also recorded: exhibit the desired vasodilatory effect | 423.2 ± 12.5 s | 11.2 ± 0.9 number | 52.3 ± 3.9 s | 12.0 ± 1.7 number | 42.5 ± 2.9 s | 343.3 ± 10.9 s | 375.8 ± 10.8 s | 14.5 ± 0.8 number | 44.7 ± 4.2 s | 11.2 ± 0.3 number | 34.3 ± 2.5 s | 386.2 ± 14.3 s | able to induce an increase in sexual behaviour | more than 1 hour
